Data on 19 compounds can be found in ChEMBL document CHEMBL1152105, “Anthraquinones related to rhein inhibit glucose uptake into chondrocytes. A mechanism for anti-osteoarthritis drugs?” (1997).

Structures are written as SMILES.

A short description of this experiment: Percent inhibition of glucose uptake into chondrocytes prepared from the metacarpophalageal joints of mature cow at concentration of 50 uM. The class given is functional. As to conditions: Bos taurus.
As to `O=C1c2cccc(O)c2C(=O)c2c(O)cc(-c3nn[nH]n3)cc21`, the inhibition at 50 µM stood at 103%. For `COc1ccc(OC)c2c1C(=O)c1ccc(-c3nn[nH]n3)cc1C2=O`, the inhibition at 50 µM worked out at 81.8%. Next, `COc1cc(C(=O)O)c(OC)c2c1C(=O)c1ccccc1C2=O`: 14%. Take `CCOc1cccc2c1C(=O)c1c(OCC)cc(C(=O)O)cc1C2=O`: the inhibition at 50 µM turned out to be 18.5%. Next, `COc1cccc2c1C(=O)c1c(OC)cc(C(=O)O)cc1C2=O`: -1.9%; `CC(=O)Oc1ccc2c(c1)C(=O)c1cc(C(=O)O)ccc1C2=O`: 1.6%; `COc1cccc2c1C(=O)c1c(OC)cc(-c3nn[nH]n3)cc1C2=O`: 36.2%. On to `CCOc1cccc2c1C(=O)c1c(OCC)cc(-c3nn[nH]n3)cc1C2=O`, for which the inhibition at 50 µM worked out at 92%. To `COc1cc(C(=O)O)cc2c1C(=O)c1c(OC)ccc(OC)c1C2=O` belongs 4.8%. To `COc1ccc(OC)c2c1C(=O)c1ccc(C(=O)O)cc1C2=O` belongs 25.3%; to `O=C(O)c1cc(O)c2c(c1)C(=O)c1c(O)ccc(O)c1C2=O`, 22.1%. On to `CCOc1ccc(OCC)c2c1C(=O)c1ccc(C(=O)O)cc1C2=O`, for which the inhibition at 50 µM worked out at 37.7%. Next, `O=C(O)c1ccc2c(c1)C(=O)c1cc(O)ccc1C2=O`: 16.9%; `O=C(O)c1cc(O)c2c(c1O)C(=O)c1ccccc1C2=O`: 24.9%. To `CC(=O)Oc1ccc(OC(C)=O)c2c1C(=O)c1ccc(C(=O)O)cc1C2=O` belongs 14.8%. As for `CCCOc1cccc2c1C(=O)c1c(OCCC)cc(C(=O)O)cc1C2=O`, the inhibition at 50 µM turned out to be 56.7%.

Consider `Oc1cc(O)c2c(c1)O[C@H](c1ccc(O)c(O)c1)[C@@H](O)C2` [CIANIDANOL], for which the inhibition at 50 µM was 12.1%.

As for `O=C(CCc1ccc(O)cc1)c1c(O)cc(O)cc1O[C@@H]1O[C@H](CO)[C@@H](O)[C@H](O)[C@H]1O` [PHLORIZIN], the inhibition at 50 µM came to 11.9%.

For the compound `O=C(O)c1cc(O)c2c(c1)C(=O)c1cccc(O)c1C2=O` [RHEIN], the inhibition at 50 µM is 3%.

As usually defined, the inhibition is the drop in the measured response relative to a control, in per cent.
